Tests used:
[1] = molecular target: VEGFR2 (cytoplasmic domain KDR protein) (Homo sapiens (Human), UniProt P35968); test: VEGFR2 Kinase Assay (biochemical KDR kinase assay, ELISA); conditions: read-out: VEGFR2 Enzyme Assay (IC50 nM); 2.7 μM ATP
[2] = molecular target: recombinant human GST-PKR (Homo sapiens (Human), UniProt P19525); test: PKR KinaseGlo Assay; type: biochemical; conditions: 6.6 uM ATP; read-out: PKR KINASEGLO Enzyme Assay IC50
Method: Commercially available recombinant human GST-PKR (SignalChem, Canada; 1.5 uM-2 uM stock) is diluted to 500 nM in assay buffer (20 mM Tris-HCl, pH 7.2, 10 mM KCl, 10 mM MgCl2, 10% glycerol). Preactivated PKR is dispensed to 384/96-well black plates at 3.125/12.5 uls/well using the liquid handler Janus. Appropriate dilutions of inhibitors are added to 384/96-well plate followed by 6.6 uM ATP (final) and incubated for 10 minutes at room temperature. The remaining ATP/well is determined by adding 6.25/25 uls/well Kinase-Glo assay mix (Promega) and luminescence is measured on EnVision luminescence plate reader (integration time, 0.2 sec; Perkin-Elmer, Massachusetts, USA). […] IC50 values are determined by plotting % activity versus inhibitor concentration. Curves are fitted using Activity base XLfit (IDBS, UK) using the formula— 4 Parameter Logistic Model fit=(A+((B−A)/(1+(10^((C−x)*D))))) inv=(C−(log(((B−A)/(y−A))−1)/D)) res=(y−fit)

VEGFR2 = VEGFR2 (Homo sapiens (Human), UniProt P35968); test: VEGFR2 Cellular Assay (FLIPR, VEGF induced intracellular calcium in HUVEC)
Chain of VEGFR2 (P35968 20-1356): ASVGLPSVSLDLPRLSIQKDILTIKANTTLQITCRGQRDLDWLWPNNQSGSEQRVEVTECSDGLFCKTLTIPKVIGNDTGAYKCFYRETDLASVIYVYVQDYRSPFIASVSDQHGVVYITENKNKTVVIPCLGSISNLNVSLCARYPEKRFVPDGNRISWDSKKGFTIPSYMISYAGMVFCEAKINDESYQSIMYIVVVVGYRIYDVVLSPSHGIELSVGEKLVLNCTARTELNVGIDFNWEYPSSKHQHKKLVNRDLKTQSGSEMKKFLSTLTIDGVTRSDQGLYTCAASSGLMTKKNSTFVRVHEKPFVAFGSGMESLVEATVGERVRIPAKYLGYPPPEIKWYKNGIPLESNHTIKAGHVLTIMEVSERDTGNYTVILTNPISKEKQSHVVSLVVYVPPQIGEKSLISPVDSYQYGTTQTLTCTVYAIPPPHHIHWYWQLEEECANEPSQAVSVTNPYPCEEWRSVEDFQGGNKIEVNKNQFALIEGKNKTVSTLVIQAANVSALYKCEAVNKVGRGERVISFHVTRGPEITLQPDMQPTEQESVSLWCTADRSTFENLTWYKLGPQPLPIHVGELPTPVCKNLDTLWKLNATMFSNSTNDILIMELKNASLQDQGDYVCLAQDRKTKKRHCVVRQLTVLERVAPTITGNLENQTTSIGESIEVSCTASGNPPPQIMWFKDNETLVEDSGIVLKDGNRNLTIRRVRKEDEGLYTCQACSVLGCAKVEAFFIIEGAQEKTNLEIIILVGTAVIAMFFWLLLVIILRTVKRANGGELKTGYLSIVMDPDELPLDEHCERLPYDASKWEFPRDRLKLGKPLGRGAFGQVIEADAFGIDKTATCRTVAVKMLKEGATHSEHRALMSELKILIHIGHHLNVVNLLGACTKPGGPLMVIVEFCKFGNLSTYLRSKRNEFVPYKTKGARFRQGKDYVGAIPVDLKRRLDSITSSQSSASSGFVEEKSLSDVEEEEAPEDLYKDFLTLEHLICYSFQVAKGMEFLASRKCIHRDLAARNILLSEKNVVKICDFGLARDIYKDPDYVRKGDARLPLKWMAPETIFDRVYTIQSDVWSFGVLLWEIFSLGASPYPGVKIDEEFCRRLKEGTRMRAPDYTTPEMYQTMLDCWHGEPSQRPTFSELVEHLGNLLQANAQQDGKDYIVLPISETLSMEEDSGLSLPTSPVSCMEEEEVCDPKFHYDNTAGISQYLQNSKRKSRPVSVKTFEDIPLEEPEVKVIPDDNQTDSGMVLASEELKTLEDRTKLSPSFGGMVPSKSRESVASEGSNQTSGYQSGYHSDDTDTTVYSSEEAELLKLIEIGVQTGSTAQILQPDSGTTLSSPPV

[3] = molecular target: PDGFRβ (cytoplasmic domain PDGFR-b protein) (Homo sapiens (Human), UniProt P09619); test: PDGFRβ Kinase Assay (biochemical, ELISA); conditions: 36 μM ATP; read-out: PDGFRβ Enzyme Assay (IC50 nM)
Chain of PDGFRβ (cytoplasmic domain PDGFR-b protein) (P09619 554-1106): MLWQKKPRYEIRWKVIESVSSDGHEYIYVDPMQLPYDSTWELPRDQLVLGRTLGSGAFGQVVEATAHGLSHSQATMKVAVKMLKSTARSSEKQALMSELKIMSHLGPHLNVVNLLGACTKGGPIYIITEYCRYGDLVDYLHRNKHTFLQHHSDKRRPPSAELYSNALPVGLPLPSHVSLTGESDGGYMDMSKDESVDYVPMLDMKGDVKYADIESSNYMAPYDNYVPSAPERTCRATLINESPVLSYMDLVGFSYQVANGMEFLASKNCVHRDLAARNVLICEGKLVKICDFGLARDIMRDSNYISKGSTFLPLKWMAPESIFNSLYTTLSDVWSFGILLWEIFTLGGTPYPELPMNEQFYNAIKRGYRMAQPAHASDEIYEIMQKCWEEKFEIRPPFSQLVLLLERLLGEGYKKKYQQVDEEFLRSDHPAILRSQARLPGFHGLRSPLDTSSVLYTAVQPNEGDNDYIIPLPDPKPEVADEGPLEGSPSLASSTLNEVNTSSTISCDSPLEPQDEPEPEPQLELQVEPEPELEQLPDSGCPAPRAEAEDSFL

PDGFRβ = PDGFRβ (Homo sapiens (Human), UniProt P09619); test: PDGFRβ Cellular Assay (FLIPR, PDGF-induced intracellular calcium in NHDF-Ad)
Chain of PDGFRβ (P09619 33-1106): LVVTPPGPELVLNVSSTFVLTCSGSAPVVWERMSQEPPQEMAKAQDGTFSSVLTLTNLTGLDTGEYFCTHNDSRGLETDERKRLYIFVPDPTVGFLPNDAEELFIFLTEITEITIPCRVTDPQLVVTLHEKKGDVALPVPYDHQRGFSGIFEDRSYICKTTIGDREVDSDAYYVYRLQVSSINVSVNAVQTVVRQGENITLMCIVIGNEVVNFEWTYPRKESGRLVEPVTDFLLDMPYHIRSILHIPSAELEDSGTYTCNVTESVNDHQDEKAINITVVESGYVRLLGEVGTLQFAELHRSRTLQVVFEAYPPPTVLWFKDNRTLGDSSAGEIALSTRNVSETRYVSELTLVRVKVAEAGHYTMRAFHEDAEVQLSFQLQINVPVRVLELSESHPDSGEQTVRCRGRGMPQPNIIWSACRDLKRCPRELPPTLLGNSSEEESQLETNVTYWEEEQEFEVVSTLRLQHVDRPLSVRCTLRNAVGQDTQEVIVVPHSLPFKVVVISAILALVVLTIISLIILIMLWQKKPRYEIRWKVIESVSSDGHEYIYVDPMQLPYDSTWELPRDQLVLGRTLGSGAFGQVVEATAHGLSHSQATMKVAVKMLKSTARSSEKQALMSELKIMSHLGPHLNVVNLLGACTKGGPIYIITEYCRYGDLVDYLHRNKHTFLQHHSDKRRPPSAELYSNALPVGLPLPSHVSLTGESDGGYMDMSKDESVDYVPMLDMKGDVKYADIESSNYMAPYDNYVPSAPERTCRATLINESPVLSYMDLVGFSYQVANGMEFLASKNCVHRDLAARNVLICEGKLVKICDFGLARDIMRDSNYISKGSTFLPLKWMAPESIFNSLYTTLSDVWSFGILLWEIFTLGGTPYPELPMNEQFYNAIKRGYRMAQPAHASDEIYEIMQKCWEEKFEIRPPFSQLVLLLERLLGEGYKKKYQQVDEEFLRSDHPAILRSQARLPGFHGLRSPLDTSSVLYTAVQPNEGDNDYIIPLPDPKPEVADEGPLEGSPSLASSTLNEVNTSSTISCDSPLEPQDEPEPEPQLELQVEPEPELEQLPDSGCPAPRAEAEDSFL

Chain of recombinant human GST-PKR (P19525 whole entry): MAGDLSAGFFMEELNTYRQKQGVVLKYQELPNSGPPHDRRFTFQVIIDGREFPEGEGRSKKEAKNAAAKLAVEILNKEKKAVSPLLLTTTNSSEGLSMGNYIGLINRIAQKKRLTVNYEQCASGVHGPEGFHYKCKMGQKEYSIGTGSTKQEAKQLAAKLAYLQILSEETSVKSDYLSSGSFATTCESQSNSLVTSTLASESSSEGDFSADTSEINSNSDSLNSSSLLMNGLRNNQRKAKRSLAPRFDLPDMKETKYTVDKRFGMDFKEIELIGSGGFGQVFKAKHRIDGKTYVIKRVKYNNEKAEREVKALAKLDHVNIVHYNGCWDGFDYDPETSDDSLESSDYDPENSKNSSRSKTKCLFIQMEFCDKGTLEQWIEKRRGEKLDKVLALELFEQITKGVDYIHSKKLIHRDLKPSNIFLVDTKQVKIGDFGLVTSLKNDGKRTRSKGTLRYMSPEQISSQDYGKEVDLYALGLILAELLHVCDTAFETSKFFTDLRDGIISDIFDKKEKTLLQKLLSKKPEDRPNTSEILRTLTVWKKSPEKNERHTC
Chain of VEGFR2 (cytoplasmic domain KDR protein) (P35968 786-1356): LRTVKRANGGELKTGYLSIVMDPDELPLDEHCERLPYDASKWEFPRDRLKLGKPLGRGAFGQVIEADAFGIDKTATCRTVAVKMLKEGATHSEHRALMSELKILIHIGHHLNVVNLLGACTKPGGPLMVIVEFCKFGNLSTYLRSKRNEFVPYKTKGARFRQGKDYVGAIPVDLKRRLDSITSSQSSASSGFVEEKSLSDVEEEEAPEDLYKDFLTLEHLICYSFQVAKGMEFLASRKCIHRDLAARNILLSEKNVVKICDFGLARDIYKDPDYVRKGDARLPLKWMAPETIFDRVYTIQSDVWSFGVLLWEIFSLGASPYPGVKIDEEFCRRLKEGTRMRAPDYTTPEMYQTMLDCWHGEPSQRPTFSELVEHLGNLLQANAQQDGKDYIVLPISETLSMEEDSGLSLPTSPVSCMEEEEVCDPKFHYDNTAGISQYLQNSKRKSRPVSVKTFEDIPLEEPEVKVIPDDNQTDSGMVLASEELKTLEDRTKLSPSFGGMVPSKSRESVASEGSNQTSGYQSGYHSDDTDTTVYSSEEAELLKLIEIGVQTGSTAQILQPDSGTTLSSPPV

Row | SMILES | IC50 [1] | IC50 [2] | IC50 (VEGFR2) | IC50 [3] | IC50 (PDGFRβ)
1 | CS(C)(=O)=NC(=O)c1cnc(N)c(-c2cc3cc(NC(=O)Nc4ccc(Cl)c(C(F)(F)F)c4)ccc3s2)c1 [Example 5, 6-amino-5-{5-[({[4-chloro-3-(trifluoromethyl)phenyl]amino}carbonyl)amino]-1-benzothien-2-yl}-N-[dimethyl(oxido)-λ^4-sulfanylidene]nicotinamide] | 6 nM | 69 nM | 11 nM | 21 nM | –
2 | CS(C)(=O)=NC(=O)c1cncc(-c2cc3cc(NC(=O)Nc4cc(C(F)(F)F)ccc4F)ccc3s2)c1 [Example 57, N-[dimethyl(oxido)-λ^4-sulfanylidene]-5-{5-[({[2-fluoro-5-(trifluoromethyl)phenyl]amino}carbonyl)amino]-1-benzothien-2-yl}nicotinamide] | 7 nM | 551 nM | – | – | –
3 | COP(=O)(OC)c1cnc(N)c(-c2ccc(NC(=O)Nc3cccc(C(F)(F)F)c3)cc2)c1 [Example 64, dimethyl (6-amino-5-(4-(3-(3-(trifluoromethyl)phenyl)ureido)phenyl)pyridin-3-yl)phosphonate] | – | – | – | – | 66 nM

More lines, main results first:

Row | IC50 [1] | IC50 [2] | IC50 (VEGFR2) | IC50 [3] | SMILES | IC50 (PDGFRβ)
4 | 6 nM | 167 nM | 5 nM | 27 nM | CS(C)(=O)=NC(=O)c1cnc(N)c(-c2cc3cc(NC(=O)Nc4cc(C(F)(F)F)ccc4F)ccc3s2)c1 [Example 6, 6-amino-N-[dimethyl(oxido)-λ^4-sulfanylidene]-5-{5-[({[2-fluoro-5-(trifluoromethyl)phenyl]amino}carbonyl)amino]-1-benzothien-2-yl}nicotinamide] | –
5 | 14 nM | 390 nM | – | – | CS(C)(=O)=NC(=O)c1cncc(-c2cc3cc(NC(=O)Nc4ccc(Cl)c(C(F)(F)F)c4)ccc3s2)c1 [Example 58, 5-{5-[({[4-chloro-3-(trifluoromethyl)phenyl]amino}carbonyl)amino]-1-benzothien-2-yl}-N-[dimethyl(oxido)-Δ^4-sulfanylidene]nicotinamide] | –

— patent US9868726B2, “Pyridyl benzothiophenes as kinase inhibitors” (Allergan, Inc., priority 2014, dated 2018)
